{
  "source": "paper PMC12828148",
  "about": "“Engineered cyclic peptide targeting ITGA5 disrupts tumor–stroma interaction to overcome desmoplasia and resistance in pancreatic ductal adenocarcinoma” (Acta Pharmaceutica Sinica. B, 2025)",
  "key": {"TGF-β treated PSCs": {"tested_on": "TGF-β treated PSCs", "assay": "Cell adhesion competition study (PSC attachment to FN-coated plate, crystal violet)", "assay_type": "cell-based, human", "details": "50 μmol/L peptide, 30 min pre-incubation 37 °C, 1 h attachment, crystal violet absorbance 600 nm, n = 3", "protocol": "To analyze the interaction of PSC and FN, a 96 suspension well plate was coated with 100 μL FN (Advanced Biomatrix, Carlsbad, CA, USA) at 1 μg/mL by overnight incubation at 4 °C. Next, the plate was washed with DPBS (Lonza) and blocked with 5% bovine serum albumin (BSA) in DPBS for at least 1 h at RT. In the meantime, a cell suspension of 200,000 cells/mL of TGF-β treated PSCs in DPBS with 2 mmol/L Ca^2+ and 2 mmol/L Mg^2+ was treated with 50 μmol/L AV3.3 or cyAV3.3 and incubated for 30 min at 37 °C. After washing the plate with DPBS, 100 μL cell suspension was added to each well and then set to rest for 1 h at RT. The plate was then washed with DPBS to remove unattached cells. […] Next, cells were stained with 0.1% (w/v) crystal violet (Sigma) in 25% methanol at RT. After 20 min, cells were washed with water and lysed with 0.5% (w/v) SDS. The degree of cell attachment was measured by the absorbance of the crystal violet at 600 nm using Tecan Infinite M200 plate reader (Tecan, Mannendorf, Switzerland). In other plate, cells were washed with DPBS after fixation and then stained with DAPI. Images were developed using EVOS fluorescence microscope (Thermo Scientific)."}, "hPSCs": {"tested_on": "hPSCs", "assay": "Cell viability, Alamar blue assay", "assay_type": "cell-based, human", "protocol": "We investigated the inhibitory effect of both cyclic and linear peptides on PSC activation and signaling. To achieve this, PSCs were seeded and treated with TGF-β and peptides for 48 h (protein expression) or 24 h (gene expression). We also tested the effect of the peptide on the cell viability using Alamar blue assay and found no toxicity (Supporting Information Fig. S3A). […] To quantitate that, we performed Western blot analysis and confirmed the observed effect via immunostaining (Fig. 2B and C; Fig. S3B). The details of the antibodies used can be found in Supporting Information Table S2. […] After obtaining these effects, we focused on cyAV3.3 and examined its inhibitory effects on TGF-β1-stimulated PSCs using qPCR and an RT[2] profiler PCR array for ECM and adhesion receptors (Fig. 2D). […] The details of primers for all genes can be found in Supporting Information Table S3. […] In contrast, cyAV3.3 induced the gene expression of ECM-degrading proteins such as MMP10 and ADAMTS-13 (Supporting Information Fig. S4)."}, "[1]": {"tested_on": "hPSC activated with TGF-β", "assay": "Inhibition of TGF-β-induced PSC activation (immunocytochemical staining, Western blot)", "assay_type": "cell-based, human", "details": "5 ng/mL TGF-β, 48 h, peptides at 20 and 50 μmol/L, immunostaining and Western blot", "protocol": "secondary peroxidase labeled antibody was added and incubated for 1 h at RT. The HRP signal was developed using standard chemiluminescence kit and the signal was measured.\nTo evaluate the stability, 20 µmol/L peptide was incubated in 50% human plasma at biological temperature 37 °C for 1, 2, and 24 h. After incubation, plasma was precipitated by adding equal volume of 4% trichloroacetic acid (TCA) and rested on ice for 10 min. As control (or 0h), precipitation was performed immediately after mixing the peptide and plasma. Supernatant was collected after centrifugation at 13,300 × g and assessed using reversed phase high performance liquid chromatography (HPLC) with 5%, 95%, and 99.9% acetonitrile in de-gassed water with 0.1% trifluoroacetic acid as eluents. The remaining peptide was analyzed at a wavelength 280 nm.\nQuantitative real-time PCR\nTo examine the effect of peptides on the gene expression of hPSC activation markers, cells were seeded into a 12 well plate at a seeding density of 50,000 cells/well. After overnight incubation, cells were starved for 24 h, then treated with human recombinant 5 ng/mL TGF-β (Peprotech, Hamburg, Germany) and […] peptide. After 24 h of the incubation, cells were lysed and total RNA was isolated using GenElute™ Mammalian Total RNA Miniprep Kit (Sigma–Aldrich) and the RNA concentration was measured using a NanoDrop® ND-1000 Spectrophotometer (Thermo Scientific, Waltham, USA). cDNA was synthesized with iScript™ cDNA Synthesis Kit (BioRad, Veenendaal, The Netherlands), and 10 ng cDNA was used for each PCR reaction. […] Quantitative real time PCR was performed with 2× SensiMix SYBR and Fluoroscein Kit (Bioline GmbH, Luckenwalde, Germany) using a BioRad CFX384 Real-Time PCR detection system (BioRad). […]\nTo evaluate the effect of peptides on the protein expression of hPSC activation markers, hPSCs were seeded into a 12 well plate at seeding density 50,000 cells/well. […] Proteins were detected with […]\nmedium. […] Images were analyzed using […]\nsecondary fluorescence-labeled antibody diluted in PBS. […]"}, "[2]": {"tested_on": "PANC-1 homospheroids / PANC-1 + PSC heterospheroids", "assay": "3D spheroid growth and ATP viability, PANC-1 model", "assay_type": "cell-based", "details": "PANC-1 homo- and PANC-1 + PSC hetero-spheroids, treated Days 3 and 6, size Days 3, 6, 9, n = 20", "protocol": "Homo-spheroids containing hPSCs, PANC-1, or MIA PaCa-2, and hetero-spheroids containing 1:1 combination of hPSCs and PANC-1/MIA PaCa-2 were generated in a 96-well round bottom plates precoated with 1% Pluronic F-127 (Sigma–Aldrich). The self-assembled spheroids were exposed to cyAV3.3, gemcitabine, or both after 3 days and 6 days. Before each treatment, images of spheroids were made using inverted microscope. The diameters of spheroids were measured digitally using ImageJ software. After 9 days, spheroids were moved from the wells to a fresh 96-well plate. CellTiter-Glo 3D reagent (Promega, WI, USA) was added to each well and the luminescence signal was measured after 30 min using Varioskan LUX bioluminescent reader (Thermo Scientific) to assess the viability."}, "[3]": {"tested_on": "KPC (LSL-Kras^G12D/+; LSL-Trp53^R172H/+; Pdx1-Cre) PDAC tumors", "assay": "Efficacy in genetically engineered KPC mouse PDAC model", "assay_type": "in vivo, mice", "details": "isolated tumors, n = 6", "protocol": "LSL-Kras^G12D/+; LSL-Trp53^R172H/+; Pdx1-Cre (KPC) mice were bred and maintained, on a mixed background, at the CRUK Scotland Institute. Mice were palpated until an abdominal tumor was detected (between 12 and 28 weeks of age) and were then imaged under anesthesia by 3D ultrasound imaging using the VisualSonics Vevo 3100 system with the MX550D transducer (FujiFilm). Following confirmation of PDAC of 3–6 mm, mice of both sexes were enrolled on treatment with cyAV3.3 25 mg/kg i.p. b.i.w. and gemcitabine (100 mg/kg i.p. b.i.w., n = 6). No mice were excluded from the study. Mice treated with gemcitabine alone were used as control group (n = 6). Follow-up imaging to monitor tumor volume was performed weekly until endpoint was reached (moderate symptoms: abdominal distension, loss of body conditioning, jaundice, hunching, or reduced movement). Upon post-mortem, gross pathology was examined and PDAC and organs harvested and fixed in 10% neutral buffered formalin prior to paraffin embedding and sectioning for histological and IHC analysis. Kaplan–Meier and Log-Rank analysis was used for statistical assessment of survival. Analysis of ultrasound images was performed by researchers blinded to treatment arm using VisualSonics VevoLab software (version 3.1.1). In 3D mode, stacked images of the tumor were imported, and tumor border annotated, allowing a 3D volume analysis."}, "[4]": {"tested_on": "PANC-1 + PSC and MIA PaCa-2 + PSC co-injection xenograft tumors", "details": "PANC-1 + PSC and MIA PaCa-2 + PSC co-injection xenografts, i.p. treatment, n = 4 per group per tumor type", "protocol": "Six-week-old male CB17 SCID mice (Janvier Labs, Le Genest-Saint-Isle, France) were subcutaneously injected with a 2:1 mixture of 4 × 10^6 human PSCs and 2 × 10^6 PANC-1 or MIA PaCa-2 cells. Tumor growth was assessed twice a week. Tumor-bearing mice (±100 mm^3) were treated with phosphate buffered saline (PBS), cyAV3.3, gemcitabine, or combination of gemcitabine and cyAV3.3 intraperitoneally (i.p). Animals were euthanized, tumors and other organs were harvested and embedded in Cryomatrix (Thermo Scientific) before being snap frozen in cold 2-methyl butane (Thermo Scientific) and stored at −80 °C until analyses. […]\nImmunohistochemical staining of mouse tumors\nTumors were cut into 7 μm thick sections and mounted on glass slides using Cryotome FSE (Thermo Scientific), dried, and fixed in acetone for 15 min. Tumor sections were rehydrated in PBS for 10 min then incubated with primary antibody diluted in PBS for 1 hour at RT. Antibodies […]\nNext, slides were washed 3 times with PBS before incubation with secondary fluorescence-labeled antibody diluted in PBS. After 30 min of incubation, slides were washed with PBS and shielded with a DAPI -containing mounting medium. Images were made using a Hamamatsu NanoZoomer Digital slide scanner 2.0HT (Hamamatsu Photonics, New Jersey, […]"}},
  "note": "Ends that are not written are not given here.",
  "data": [
    {"compound": "cyclo(GYYTRRAYK) [scr, scrambled cyclic peptide control, reference compound]", "values": [
      {"measurement": "blocking of the binding of PSC to FN", "setting": "TGF-β treated PSCs", "result": "did not show any blocking"}
    ]},
    {"compound": "RYYRATY [AV3.3]", "values": [
      {"measurement": "effect on cell viability", "setting": "hPSCs", "result": "no toxicity"},
      {"measurement": "inhibition of PSC activation by TGF-β1 (expression of α-SMA and collagen-1)", "setting": "[1]", "result": "inhibited the activation of PSCs"}
    ]},
    {"compound": "Nc1ccn([C@@H]2O[C@H](CO)[C@@H](O)C2(F)F)c(=O)n1", "note": "[gemcitabine]", "values": [
      {"measurement": "spheroid growth", "setting": "[2]", "result": "reduced the growth of both homo- and hetero-spheroids"},
      {"measurement": "collagen deposition (Sirius red) in KPC tumors", "setting": "[3]", "result": "significantly induced collagen deposition"},
      {"measurement": "reduction of tumor size / tumor growth", "setting": "[4]", "result": 60, "unit": "%"}
    ]}
  ]
}
